Measurements: the CheMixHub viscosity set

Assay: xn = mol fraction of the nth substance listed

N[C@@H](Cc1c[nH]c2ccccc12)C(=O)O + O
303 K, 100 kPa
Conditions | viscosity [mPa·s]
x1 = 0.087 | 0.934
x1 = 0.0954 | 1
x1 = 0.0971 | 1.018
x1 = 0.0979 | 1.055
x1 = 0.0983 | 1.077
x1 = 0.0985 | 1.101

O=P(O)(O)O + O
Conditions | viscosity [mPa·s]
293.15 K, 101 kPa, x1 = 0.404 | 27.7
293.15 K, 101 kPa, x1 = 0.441 | 32.01
293.15 K, 101 kPa, x1 = 0.504 | 46.83
293.15 K, 101 kPa, x1 = 0.537 | 54.26
293.15 K, 101 kPa, x1 = 0.574 | 64.47
293.15 K, 101 kPa, x1 = 0.603 | 69.15
293.15 K, 101 kPa, x1 = 0.616 | 75.28
293.15 K, 101 kPa, x1 = 0.626 | 79.2
298 K, 101.33 kPa, x1 = 0.0038 | 0.939
298 K, 101.33 kPa, x1 = 0.007 | 0.979
298 K, 101.33 kPa, x1 = 0.014 | 1.075
298 K, 101.33 kPa, x1 = 0.0215 | 1.191
298 K, 101.33 kPa, x1 = 0.029 | 1.307
298 K, 101.33 kPa, x1 = 0.0376 | 1.457
298 K, 101.33 kPa, x1 = 0.0462 | 1.62
298 K, 101.33 kPa, x1 = 0.0537 | 1.786
298 K, 101.33 kPa, x1 = 0.0604 | 1.955
298 K, 101.33 kPa, x1 = 0.0714 | 2.204
298 K, 101.33 kPa, x1 = 0.0832 | 2.521
298 K, 101.33 kPa, x1 = 0.0925 | 2.842
298 K, 101.33 kPa, x1 = 0.1 | 3.033
298 K, 101.33 kPa, x1 = 0.106 | 3.198
298 K, 101.33 kPa, x1 = 0.111 | 3.378
298 K, 101.33 kPa, x1 = 0.151 | 4.902
298 K, 101.33 kPa, x1 = 0.2128 | 7.936
298 K, 101.33 kPa, x1 = 0.2654 | 11.32
298 K, 101.33 kPa, x1 = 0.311 | 14.88
298 K, 101.33 kPa, x1 = 0.3511 | 18.8
298 K, 101.33 kPa, x1 = 0.3871 | 22.93
298 K, 101.33 kPa, x1 = 0.422 | 27.24
298 K, 101.33 kPa, x1 = 0.4737 | 35.19
298 K, 101.33 kPa, x1 = 0.5388 | 46.3
298 K, 101.33 kPa, x1 = 0.6043 | 59.76
298.15 K, 100 kPa, x2 = 0.333 | 70.64
298.15 K, 101 kPa, x1 = 0.0018 | 0.9162
298.15 K, 101 kPa, x1 = 0.0054 | 0.9543
298.15 K, 101 kPa, x1 = 0.0089 | 1
298.15 K, 101 kPa, x1 = 0.012 | 1.054
298.15 K, 101 kPa, x1 = 0.016 | 1.089
298.15 K, 101 kPa, x1 = 0.404 | 24.33
298.15 K, 101 kPa, x1 = 0.441 | 27.61
298.15 K, 101 kPa, x1 = 0.504 | 37.59
298.15 K, 101 kPa, x1 = 0.537 | 43.17
298.15 K, 101 kPa, x1 = 0.574 | 50.35
298.15 K, 101 kPa, x1 = 0.603 | 54.12
298.15 K, 101 kPa, x1 = 0.616 | 60.3
298.15 K, 101 kPa, x1 = 0.626 | 64.75
303.15 K, 100 kPa, x2 = 0.333 | 55.6
303.15 K, 101 kPa, x1 = 0.0018 | 0.8163
303.15 K, 101 kPa, x1 = 0.0054 | 0.8526
303.15 K, 101 kPa, x1 = 0.0089 | 0.8928
303.15 K, 101 kPa, x1 = 0.012 | 0.9281
303.15 K, 101 kPa, x1 = 0.016 | 0.9679
303.15 K, 101 kPa, x1 = 0.404 | 20.3
303.15 K, 101 kPa, x1 = 0.441 | 23.66
303.15 K, 101 kPa, x1 = 0.504 | 30.35
303.15 K, 101 kPa, x1 = 0.537 | 34.61
303.15 K, 101 kPa, x1 = 0.574 | 38.68
303.15 K, 101 kPa, x1 = 0.603 | 43.03
303.15 K, 101 kPa, x1 = 0.616 | 46.81
303.15 K, 101 kPa, x1 = 0.626 | 52.57
308.15 K, 100 kPa, x2 = 0.333 | 46.73
308.15 K, 101 kPa, x1 = 0.0018 | 0.7331
308.15 K, 101 kPa, x1 = 0.0054 | 0.763
308.15 K, 101 kPa, x1 = 0.0089 | 0.794
308.15 K, 101 kPa, x1 = 0.012 | 0.84
308.15 K, 101 kPa, x1 = 0.016 | 0.8774
308.15 K, 101 kPa, x1 = 0.404 | 17.53
308.15 K, 101 kPa, x1 = 0.441 | 19.85
308.15 K, 101 kPa, x1 = 0.504 | 24.19
308.15 K, 101 kPa, x1 = 0.537 | 27.64
308.15 K, 101 kPa, x1 = 0.574 | 31.89
308.15 K, 101 kPa, x1 = 0.603 | 33.9
308.15 K, 101 kPa, x1 = 0.616 | 37.64
308.15 K, 101 kPa, x1 = 0.626 | 41.08
313.15 K, 100 kPa, x2 = 0.333 | 39.76
313.15 K, 101 kPa, x1 = 0.404 | 14.63
313.15 K, 101 kPa, x1 = 0.441 | 17.7
313.15 K, 101 kPa, x1 = 0.504 | 21.48
313.15 K, 101 kPa, x1 = 0.537 | 22.64
313.15 K, 101 kPa, x1 = 0.574 | 25.3
313.15 K, 101 kPa, x1 = 0.603 | 27.25
313.15 K, 101 kPa, x1 = 0.616 | 29.46
313.15 K, 101 kPa, x1 = 0.626 | 32.1
318.15 K, 100 kPa, x2 = 0.333 | 32.46
323.15 K, 100 kPa, x2 = 0.333 | 27.57

OCCC(O)CO (centres undefined) + O
viscosity [mPa·s], 101 kPa
Conditions | 293.15 K | 298.15 K | 303.15 K | 308.15 K | 313.15 K | 318.15 K | 323.15 K
x1 = 0.005 | 1.089 | 0.984 | 0.889 | 0.798 | 0.7 | 0.656 | 0.595
x1 = 0.01 | 1.271 | 1.096 | 0.968 | 0.863 | 0.769 | 0.703 | 0.626
x1 = 0.015 | 1.46 | 1.193 | 1.067 | 0.942 | 0.853 | 0.77 | 0.678
x1 = 0.02 | 1.617 | 1.328 | 1.195 | 1.058 | 0.937 | 0.857 | 0.732

C=C(C)C(=O)OCc1ccccc1 + O=C1CCCCC1
viscosity [mPa·s], 101 kPa
Conditions | x2 = 0.1 | x2 = 0.1999 | x2 = 0.3 | x2 = 0.3999 | x2 = 0.5 | x2 = 0.6 | x2 = 0.7 | x2 = 0.8 | x2 = 0.9
298.15 K | 2.208 | 2.141 | 2.079 | 2.038 | 2.002 | 1.972 | 1.95 | 1.943 | 1.934
308.15 K | 1.816 | 1.765 | 1.718 | 1.687 | 1.656 | 1.632 | 1.617 | 1.602 | 1.589
318.15 K | 1.519 | 1.484 | 1.447 | 1.422 | 1.398 | 1.383 | 1.369 | 1.356 | 1.348

CC(=O)OCCC(C)C + O=[N+]([O-])c1ccccc1
viscosity [mPa·s], 101 kPa
Conditions | 298.15 K | 308.15 K
x1 = 0.0448 | 1.721 | 1.488
x1 = 0.1512 | 1.567 | 1.367
x1 = 0.249 | 1.439 | 1.267
x1 = 0.3494 | 1.321 | 1.174
x1 = 0.4412 | 1.222 | 1.096
x1 = 0.5 | 1.164 | 1.05
x1 = 0.5486 | 1.118 | 1.014
x1 = 0.6489 | 1.03 | 0.945
x1 = 0.7486 | 0.951 | 0.882
x1 = 0.8513 | 0.876 | 0.823
x1 = 0.9464 | 0.814 | 0.773
